The source of these data is publication PMC6177136, “Hybrid topoisomerase I and HDAC inhibitors as dual action anticancer agents” (PLoS ONE, 2018).

Like-named read-outs stand apart in the source and are kept apart here.

What all share (assay type): cell-based, Human
The test system of one assay is NCI-H460. Kind of assay: Cytotoxicity assay (SRB, 72 h) NCI-H460. Particulars: for IC50: 72 h, SRB assay, read-out: IC50 ± SD NCI-H460.
The next assay relates to HT29. Nature of the assay: Cytotoxicity assay (SRB, 72 h) HT29.
For another assay, the system named is HeLa. Kind of assay: Cytotoxicity assay (SRB, 72 h) HeLa. The note with it: read-out: IC50 ± SD HeLa.
The test system of another assay is Capan 1. Kind of assay: Cytotoxicity assay (SRB, 72 h) Capan 1.
The next assay concerns A431. Kind of assay: Cytotoxicity assay (SRB, 72 h) A431.
In another assay the test system is A2780-Dx. Kind of assay: Cytotoxicity assay (SRB, 72 h) A2780-Dx. The note with it: for RI (Resistance Index): A2780-Dx versus A2780; for IC50: 72 h, SRB assay, multidrug-resistant ovarian carcinoma, read-out: IC50 ± SD A2780-Dx. Background: The SRB assay estimates cell density from bound dye.
The subject of a further assay is HepG2. Kind of assay: Cytotoxicity assay (SRB, 72 h) HepG2.
A further assay relates to A2780. Kind of assay: Cytotoxicity assay (SRB, 72 h) A2780.
A further assay concerns DU145. Nature of the assay: Cytotoxicity assay (SRB, 72 h) DU145.
A further assay deals with MM317. Kind of assay: Cytotoxicity assay, primary mesothelioma MM317. The note with it: epithelioid, 72 h, SBR assay; read-out: IC50 ± SD MM317.
The subject of the next assay is MM481. Kind of assay: Cytotoxicity assay, primary mesothelioma MM481. Particulars: epithelioid, 72 h, SBR assay; read-out: IC50 ± SD MM481.
The next assay deals with MM404. Kind of assay: Cytotoxicity assay, primary mesothelioma MM404. Particulars: epithelioid, 72 h, SBR assay; read-out: IC50 ± SD MM404.
The test system of another assay is MM491. Nature of the assay: Cytotoxicity assay, primary mesothelioma MM491. The note with it: biphasic, 72 h, SBR assay; read-out: IC50 ± SD MM491.
For the next assay, the system named is MM432. Nature of the assay: Cytotoxicity assay, primary mesothelioma MM432.
The next assay relates to MM487. Nature of the assay: Cytotoxicity assay, primary mesothelioma MM487.
For a further assay, the system named is MM473. Nature of the assay: Cytotoxicity assay, primary mesothelioma MM473. Particulars: epithelioid, 72 h, SBR assay; read-out: IC50 ± SD MM473.
A further assay has as its system MM288. Kind of assay: Cytotoxicity assay, primary mesothelioma MM288.
The test system of the next assay is U-2932. Nature of the assay: Cytotoxicity assay (MTT, 72 h) U-2932. Particulars: read-out: IC50 ± SD U-2932.
A further assay has as its system DG-75. Nature of the assay: Cytotoxicity assay (MTT, 72 h) DG-75.
The subject of the next assay is OCI-LY3. Nature of the assay: Cytotoxicity assay (MTT, 72 h) OCI-LY3. Particulars: 72 h, MTT assay; read-out: IC50 ± SD OCI-LY3. How it is done: (§1) Human tumor cells were seeded in 96-well cell culture plastic plates, allowed to attach, and exposed to scalar concentrations of the test compounds.
The next assay deals with MINO. Nature of the assay: Cytotoxicity assay (MTT, 72 h) MINO. Particulars: 72 h, MTT assay; read-out: IC50 ± SD MINO.
The subject of another assay is L-428. Kind of assay: Cytotoxicity assay (MTT, 72 h) L-428. Particulars: 72 h, MTT assay; read-out: IC50 ± SD L-428. How it is done:
as §1
(In general: Tetrazolium dyes change colour on reduction, which living cells bring about.)

The next assay has as its system JECO-1. Kind of assay: Cytotoxicity assay (MTT, 72 h) JECO-1. Particulars: 72 h, MTT assay; read-out: IC50 ± SD JECO-1.
The test system of a further assay is MAVER-2. Kind of assay: Cytotoxicity assay (MTT, 72 h) MAVER-2. Particulars: read-out: IC50 ± SD MAVER-2.
For another assay, the system named is KM-H2. Nature of the assay: Cytotoxicity assay (MTT, 72 h) KM-H2. The note with it: 72 h, MTT assay; read-out: IC50 ± SD KM-H2.
A further assay relates to NB4. Kind of assay: Cytotoxicity assay (MTT, 72 h) NB4. Particulars: read-out: IC50 ± SD NB4.
Another assay concerns H2A.X. Nature of the assay: Western blot, H2A.X induction in NCI-H460 cells. The note with it: 24 h; SAHA 5 μM, SN38 0.05 μM, 3d 0.125–0.2–0.5 μM. How it is done: (§2) The supernatant, containing the total proteins extracts, were transferred in new vials. The protein concentration was measured by Bradford Protein Assay. Equal amounts of proteins for each sample were then resolved by SDS-PAGE and loaded on 10–12% polyacrilamide gels. The proteins were then transferred on nitrocellulose membranes. Molecular weights were estimated based upon the relative migration with molecular weight protein markers.
(§3) The non-specific binding was blocked by incubation of membranes in TBS-tween (25 mM Tris, 150 mM NaCl, 0.1% Tween 20) with 5% nonfat dry milk (BIORAD, Milan) for 60 minutes. Subsequently, the membrane was incubated overnight with primary antibodies: anti-Histone H4 (Millipore, 1:500), anti-acetyl-H4 (Santa Cruz, 1:1000) anti-p21 (Santa Cruz, 1:1000), anti-acetyl-tubulin (abcam, 1:1000), anti-α-tubulin (Sigma, 1:5000), anti β-actin (Sigma, 1:5000) and anti-Topoisomerase 1 (Santa Cruz, 1:500). After three washes with TBST blots were incubated with HRP-coniugated secondary anti-mouse and anti-rabbit (Santa Cruz, 1:5000) 1 hour at room temperature. After three washes with TBST the blots were developed with ECL substrate (GE Healthcare) and chemiluminescence detected by ChemiDoc Imaging System (Biorad). The optical density of the protein bands detected by western blotting was normalized on α -tubulin levels and analyzed by ChemiDoc software (Biorad).
(§4) Cells were lysed in 0.5% NP-40 and 40 μg of total proteins were loaded on NuPAGE 4–12% (Invitrogen), transferred to a nitrocellulose paper and probed with specific antibodies.

A further assay has as its system p16. Nature of the assay: Western blot, p16 in NCI-H460 cells. Particulars: 24 h; SAHA 5 μM, SN38 0.05 μM, 3d 0.125–0.2–0.5 μM. As to the method:
as §2, §3, §4
In general terms: A western blot detects proteins with antibodies after separation by electrophoresis.

Another assay has as its system CycD1. Kind of assay: Western blot, CycD1 in NCI-H460 cells. The note with it: 24 h; SAHA 5 μM, SN38 0.05 μM, 3d 0.125–0.2–0.5 μM. How it is done: as §2, §3, §4
The next assay relates to p53. Nature of the assay: Western blot, p53 in NCI-H460 cells. The note with it: 24 h; SAHA 5 μM, SN38 0.05 μM, 3d 0.125–0.2–0.5 μM. How it is done:
as §2, §3, §4

The mark [1] stands for this setting: Homo sapiens, CAPAN-1, read-out: IC50 ± SD Capan 1.
The mark [2] stands for this setting: meaning not defined in the paper.

Usually IC50 stands for the concentration needed to halve the response being measured. As for `CC[C@@]1(O)C(=O)OCc2c1cc1n(c2=O)Cc2c-1nc1ccccc1c2C=NOCCCCCCC(=O)NO` [Compound 3c, 7-(camptothecin-7-ylmethyleneaminooxy)-heptanoic acid hydroxyamide], the 50% inhibitory concentration (IC50) came out at 198 ± 180 nM in the assay on NCI-H460 (Homo sapiens, NCI-H460); 45 ± 10 nM in the assay with HT29 (Homo sapiens, HT-29, read-out: IC50 ± SD HT29); 2400 ± 500 nM in the assay with HeLa (Homo sapiens, HeLa); 43 ± 3 nM in the assay with Capan 1 (setting [1]); 26 ± 1 nM in the assay on A431 (Homo sapiens, A-431, read-out: IC50 ± SD A431); 65 ± 10 nM with A2780-Dx (Homo sapiens, A2780/DX). Besides, the 50% inhibitory concentration (IC50) in the assay with HepG2 (Homo sapiens, HepG2, read-out: IC50 ± SD HepG2) turned out to be 680 ± 200 nM; in the assay with A2780 (Homo sapiens, A2780, read-out: IC50 ± SD A2780), 38 ± 8 nM; in the assay on DU145 (Homo sapiens, DU-145, read-out: IC50 ± SD DU145) it was 29 ± 1 nM. In the assay on A2780-Dx, the “RI (Resistance Index)” value was determined as 1.7.
Turning to `CC[C@@]1(O)C(=O)OCc2c1cc1n(c2=O)Cc2c-1nc1ccccc1c2C=NOCC(=O)NO` [Compound 3a, Camptothecin-7-yl(methyleneaminooxy)-acetic acid hydroxyamide], the IC50 was 360 ± 100 nM in the assay on NCI-H460 (Homo sapiens, NCI-H460) and 50 ± 6 nM in the assay with Capan 1 (setting [1]).
For the molecule `O=c1[nH]cc(F)c(=O)[nH]1` [Compound 5-FU], the IC50 in the assay on MM317 was 17900 ± 3100 nM; in the assay with MM481, 27400 ± 2200 nM; in the assay on MM404, 52200 ± 8700 nM; in the assay with MM491 it was 44000 ± 10300 nM; with MM432 (sarcomatoid, 72 h, SBR assay, read-out: IC50 ± SD MM432), > 200000 nM; with MM487 (biphasic, 72 h, SBR assay, read-out: IC50 ± SD MM487), > 200000 nM. The half-maximal inhibitory concentration (IC50) in the assay on MM473 was 35200 ± 8400 nM; in the assay with MM288 (epithelioid, 72 h, SBR assay, read-out: IC50 ± SD MM288), > 200000 nM. In addition, the “percentage in parentheses after IC50 >200, MM432” value in the assay on MM432 (setting [2]) is reported as 34%. In the assay on MM487 (setting [2]), the “percentage in parentheses after IC50 >200, MM487” value came to 48%. Besides, in the assay on MM288 (setting [2]), the “percentage in parentheses after IC50 >200, MM288” value is given as 35%.
For `CCc1c2c(nc3ccc(OCCCCCCC(=O)NO)cc13)-c1cc3c(c(=O)n1C2)COC(=O)[C@]3(O)CC` [CY700], the half-inhibitory concentration (IC50) is 900 ± 300 nM with U-2932; > 10000 nM in the assay with DG-75 (72 h, MTT assay, read-out: IC50 ± SD DG-75); 340 ± 40 nM with OCI-LY3; 370 ± 100 nM in the assay on MINO; 1700 ± 200 nM in the assay on L-428; 1000 ± 400 nM in the assay on JECO-1. The IC50 is 400 ± 80 nM in the assay on MAVER-2; 360 ± 20 nM in the assay on NCI-H460; 1200 ± 200 nM with HT29 (read-out: IC50 ± SD HT29); 3300 ± 900 nM in the assay on HeLa; 1500 ± 500 nM with KM-H2; 960 ± 80 nM in the assay on Capan 1 (read-out: IC50 ± SD Capan 1). For the same molecule, the IC50 in the assay with NB4 was 240 ± 60 nM; with A431 (read-out: IC50 ± SD A431), 790 ± 100 nM; with A2780-Dx it was 5900 ± 1000 nM; in the assay with HepG2 (read-out: IC50 ± SD HepG2), 1500 ± 400 nM; with A2780 (read-out: IC50 ± SD A2780), 2500 ± 300 nM; with DU145 (read-out: IC50 ± SD DU145), 870 ± 40 nM. For the same molecule, the “percentage in parentheses after IC50 >10, DG-75” value with DG-75 (meaning not defined in the paper, given beside >10 μM) is 18%. In addition, the “RI (Resistance Index)” value in the assay on A2780-Dx worked out at 2.4.
Broadly, the IC80 is the point of the concentration-response curve where the effect stands at 80%. `CCc1c2c(nc3ccc(O)cc13)-c1cc3c(c(=O)n1C2)COC(=O)[C@]3(O)CC` [SN38]: the “H2A.X induction (DNA damage)” value in the assay on H2A.X is “completely ineffective in H2A.X induction”. Further, in the assay on NCI-H460 (NCI-H460 cells), the concentration for an effect of 80% (IC80) was ~50 nM. In addition, the P16 regulation entry with p16 is given as “didn’t show any effect”. Also, in the assay on CycD1, the CycD1 regulation entry was “didn’t show any effect”. Further, the p53 activation result in the assay on p53 is reported as “less effective in p53 up-regulation”.
